Three compounds from US7910579B2, “Benzoxazole derivatives” (Tohoku University, priority 2006, dated 2011) can be followed below.

The target in data set [1] is T1, amyloid β protein in the brain section of an Alzheimer disease patient (Homo sapiens, UniProt P05067).
T1 construct: from tissue; host or cells: paraffin-embedded temporal lobe and hippocampus of Alzheimer disease patients
The experiment in a line: Staining test on a brain section of an Alzheimer disease patient: amyloid β protein. Type of data set: binding. The settings on record: for Binding to (staining of) amyloid β protein in the brain section of an Alzheimer disease patient: 100 μM solution in 50% ethanol, 10 minutes, paraffin brain section; for Specificity to amyloid β: statement in the description of formulae (II) to (VI). In short, it runs like this:
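Deparaffinized 6 or 8 μm temporal lobe/hippocampus sections from Alzheimer and normal senile brains, autofluorescence quenched with KMnO4 then K2S2O5/oxalic acid, stained 10 min with 100 μM compound in 50% ethanol and imaged by fluorescence microscopy. Amyloid β immunostaining with 6F/3D antibody and ABC/DAB detection used for comparison.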

Data set [2] has as its system neurofibrillary tangle in the brain section of an Alzheimer disease patient. The experiment in a line: Staining test on a brain section of an Alzheimer disease patient: neurofibrillary tangle. It is filed as binding, human. The settings on record: 100 μM solution in 50% ethanol, 10 minutes, paraffin brain section. An excerpt: (1) Brain specimens at the temporal lobe and the hippocampus of patients to which a definitive diagnosis of Alzheimer disease had been given, and those of normal senile persons were used. The specimens were given by our coworker, Fukushimura Hospital, Longevity Medicine Institute, and we were given their consent of use of the specimens for our study purpose by the bereaved of the patients (Fukushimura Hospital Ethical Review Board Approval No. 20).
(2) The paraffin-embedded brain tissue was cut Into slices having a thickness of 6 μm or 8 μm, and extended and dried on a slide. The paraffin brain section was steeped for paraffin removal in xylene twice for 10 minutes, 100% ethanol twice for 5 minutes, 90% ethanol for 5 minutes and running water for 10 minutes in that order.
(3) For pretreatment prior to the staining treatment with a compound of the invention, the sections were steeped for autofluorescence removal with lipofuscin. First, the paraffin-removed sections were dipped in 0.25% KMnO4 solution for 20 minutes. These were washed with PBS, twice for 2 minutes, then dipped in 0.1% K2S2O5/oxalic acid solution for about 5 seconds, and then further washed with PBS, three times for 2 minutes.
(4) About 150 μl of a 100 μM solution of a compound of the invention dissolved in 50% ethanol was dropwise applied to the section and reacted for 10 minutes. After dipped five times in tap water, the section was entrapped with Fluor Save Reagent (Calbiochem), and analyzed through microscopy with a fluorescence microscope (Nikon, Eclipse 80i). The images were taken with a digital camera (Nikon Dxm 1200F or Photometrics' Cool SNAP ES). […]

Data set [3] addresses T2, Tg mouse intracerebral amyloid plaque (Homo sapiens, UniProt P05067).
T2 construct: from tissue; host or cells: brain of Tg mice (Tg2576 or APPswe2576/Tau JNPL3) after intravenous dosing
Briefly: Investigation of transgenic (Tg) mice with amyloid deposition in their brain (fluorescence microscopy of brain sections after intravenous administration). Type of data set: in vivo. The note with it: APPswe2576/Tau JPL3 mouse, 4 mg/kg intravenous, 1 hour after administration.

Data set [4] can be described thus: Acute Toxicity Test. It is filed as in vivo. The note with it: Crj:CD1 male mice, tail vein, observed for 7 days. On the procedure:
The compounds of the invention were tested for their acute toxicity through intravenous administration thereof to mice. Four Crj:CD1 male mice formed one test group, and some test groups of those mice were used (the mean body weight of the mice of each group was from 31 to 32 g). A test compound was dissolved in a mixture of 1 N HCl, polyethylene glycol-400 and distilled water, or dissolved in DMSO, and then diluted with distilled water. This was administered to each mouse via its tail vein.

Data set [5] deals with histidine-requiring Salmonella typhimurium TA100 and TA98 strains. The experiment in a line: Mutagenicity Test (reverse mutation test). On Relative Activity in the presence of S9Mix: key: minus: The number of colonies after reverse mutation did not increase at least two times that of the negative control. It is filed as cell-based. In short, it runs like this: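 Preincubation reverse-mutation test in S. typhimurium TA100 and TA98, with and without S9mix, 20 min at 37° C, then 48 h at 37° C on minimal glucose agar. Six doses (common ratio 2) in DMSO, top dose 5000 μg/plate or growth-inhibiting dose. Revertant colonies counted; positive at ≥2-fold over DMSO control with dose dependency or reproducibility.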

T1 sequence (P05067 672-713 limits assumed): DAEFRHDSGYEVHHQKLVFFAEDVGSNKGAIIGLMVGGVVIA
T2 sequence (P05067 672-713 limits assumed): as above

In the case of `CN(C)c1ccc(-c2nnc(-c3sc4ccccc4c3Cl)o2)cc1` [THK-258, [4-[5-(3-chloro-benzo[b]thiophen-2-yl)-[1,3,4]oxadiazol-2-yl]-phenyl]-dimethylamine], in data set [1], the “Binding to (staining of) amyloid β protein in the brain section of an Alzheimer disease patient” value is given as “bound to the amyloid β protein” and the “Specificity to amyloid β” value is “high specificity to amyloid β”. The “Binding to (staining of) neurofibrillary tangle in the brain section of an Alzheimer disease patient” value in data set [2] is “bound to the amyloid β protein and the neurofibrillary tangle”.

Take `CN1C=CC(=CC=C2C=CC(=O)C=C2)C=C1` [THK-317, 4-[2-(1-methyl-1H-pyridin-4-ylidene)-ethylidene]-cyclohexa-2,5-dienone]: in data set [1], the “Binding to (staining of) amyloid β protein in the brain section of an Alzheimer disease patient” value is reported as “bound to the amyloid β protein” and the “Specificity to amyloid β” value is listed as “high specificity to amyloid β”. In addition, in data set [2], the “Binding to (staining of) neurofibrillary tangle in the brain section of an Alzheimer disease patient” value is “bound to the amyloid β protein and the neurofibrillary tangle”.

For the compound `OCC(CF)COc1ccc2nc(/C=C/c3cnc(N4CCOCC4)s3)oc2c1` (stereo not shown) [THK-727, 2-fluoromethyl-3-[2-[2-(2-morpholin-4-yl-thiazol-5-yl)-vinyl]-benzoxazol-6-yloxy]-propan-1-ol], in data set [3], the “Passage through the blood-brain barrier and binding to Tg mouse intracerebral amyloid plaque” value was “passed through the blood-brain barrier, and bound to the Tg mouse intracerebral amyloid plaque”. The “Maximum Permissible Dose (mg/kg, intravenous administration)” value in data set [4] was “≧10 mg/kg”. For the same compound, in data set [5] (irrespective of the absence or presence of S9mix), the “Relative activity (mutagenicity)” value was “minus”. Besides, the “Relative Activity in the presence of S9Mix” value in data set [5] (reverse mutation test, +S9mix) is “minus”. The “Relative Activity in the absence of S9Mix” value in data set [5] (reverse mutation test, -S9mix) is recorded as “minus”. For the same compound, in data set [1], the “Binding to (staining of) amyloid β protein in the brain section of an Alzheimer disease patient” value is “white space arrow indicates amyloid β protein”. Moreover, the “Binding to (staining of) neurofibrillary tangle in the brain section of an Alzheimer disease patient” value in data set [2] was “white space arrow head indicates neurofibrillary tangle”.
